For assay [1], the target named is T1, wildtype ecDHFR (Escherichia coli, UniProt P0ABQ4).
T1 sequence (P0ABQ4 1-159): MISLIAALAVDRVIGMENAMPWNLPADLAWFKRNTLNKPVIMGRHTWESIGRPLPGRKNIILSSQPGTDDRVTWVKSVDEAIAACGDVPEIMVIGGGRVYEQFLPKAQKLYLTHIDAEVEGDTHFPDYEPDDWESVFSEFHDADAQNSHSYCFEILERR
In words: Ligand-binding assay, tryptophan fluorescence titration.

In assay [2] the target is T2, T113V/G121S-ecDHFR (Escherichia coli, UniProt P0ABQ4, G121S/T113V).
T2 sequence (P0ABQ4 1-159 T113V/G121S): T1 sequence (P0ABQ4 1-159) with T113V, G121S
In words: Double-mutant cycle analysis of ligand binding. As to conditions: A′ = T113V, B′ = G121S.

Another assay has as its target T3, M42F-ecDHFR (Escherichia coli, UniProt P0ABQ4, M42F).
T3 sequence (P0ABQ4 1-159 M42F): T1 sequence (P0ABQ4 1-159) with M42F
In words: Ligand-binding assay, tryptophan fluorescence titration.

In assay [3] the target is T4, M42F/G121V-ecDHFR (Escherichia coli, UniProt P0ABQ4, G121V/M42F).
T4 sequence (P0ABQ4 1-159 M42F/G121V): T1 sequence (P0ABQ4 1-159) with M42F, G121V
Put plainly: Double-mutant cycle analysis of ligand binding. As to conditions: A′ = M42F, B′ = G121V.

Assay [4] addresses T5, T113V/G121V-ecDHFR (Escherichia coli, UniProt P0ABQ4, G121V/T113V).
T5 sequence (P0ABQ4 1-159 T113V/G121V): T1 sequence (P0ABQ4 1-159) with T113V, G121V
In words: Ligand-binding assay, tryptophan fluorescence titration.

Assay [5] has as its target T4, M42F/G121V-ecDHFR. The description is as above.
Assay [6] deals with T6, G121S-ecDHFR (Escherichia coli, UniProt P0ABQ4, G121S).
T6 sequence (P0ABQ4 1-159 G121S): T1 sequence (P0ABQ4 1-159) with G121S
As to conditions: cited from earlier work.

Assay [7] has as its target T7, G121V-ecDHFR (Escherichia coli, UniProt P0ABQ4, G121V).
T7 sequence (P0ABQ4 1-159 G121V): T1 sequence (P0ABQ4 1-159) with G121V
Put plainly: Ligand-binding assay, tryptophan fluorescence titration.

In assay [8] the target is T5, T113V/G121V-ecDHFR. In words: Double-mutant cycle analysis of ligand binding. As to conditions: A′ = T113V, B′ = G121V.
A further assay concerns the target T8, T113V-ecDHFR (Escherichia coli, UniProt P0ABQ4, T113V).
T8 sequence (P0ABQ4 1-159 T113V): T1 sequence (P0ABQ4 1-159) with T113V
Put plainly: Ligand-binding assay, tryptophan fluorescence titration.

The target in assay [9] is T9, M42F/G121S-ecDHFR (Escherichia coli, UniProt P0ABQ4, G121S/M42F).
T9 sequence (P0ABQ4 1-159 M42F/G121S): T1 sequence (P0ABQ4 1-159) with M42F, G121S
In words: Double-mutant cycle analysis of ligand binding. The note with it: A′ = M42F, B′ = G121S.

Assay [10] concerns the target T2, T113V/G121S-ecDHFR. Put plainly: Ligand-binding assay, tryptophan fluorescence titration.
The target in assay [11] is T1, wildtype ecDHFR. The note with it: read-out: KD^NADPH, previous reports; cited from earlier work.
The target in assay [12] is T6, G121S-ecDHFR. Put plainly: Ligand-binding assay, tryptophan fluorescence titration.
Assay [13] deals with T9, M42F/G121S-ecDHFR. Described as above.
The target in assay [14] is T7, G121V-ecDHFR. As to conditions: cited from earlier work.
The test system of the next assay is T113V mutants of ecDHFR. As to conditions: cited from earlier work.

The structures appear in SMILES notation. Substitutions are numbered along the chain they refer to. Where “and” joins values, the source holds several entries; their conditions need not be identical. Equal values may be shown once. Read-outs that look alike come from different tables or passages of the source.

Turning to `NC(=O)C1=CN([C@@H]2O[C@H](COP(=O)(O)OP(=O)(O)OC[C@H]3O[C@@H](n4cnc5c(N)ncnc54)[C@H](OP(=O)(O)O)[C@@H]3O)[C@@H](O)[C@H]2O)C=CC1` [NADPH, nicotinamide adenine dinucleotide phosphate], the Kd (commonly the free concentration of one partner at which half of the binding sites on the other are occupied at equilibrium, for simple one-to-one binding) at wildtype ecDHFR [1] (KD^NADPH, 5 μM ecDHFR, ΔF340nm analysis, fitted up to 100 μM NADPH) worked out at 1.23 ± 0.06 µM; at M42F-ecDHFR it was 33.6 ± 2.67 µM; on T113V/G121V-ecDHFR [4] it was 137 ± 1.94 µM; at M42F/G121V-ecDHFR [5], 74 ± 9.09 µM; on G121V-ecDHFR [7], 12.2 ± 1.41 µM; at T113V-ecDHFR, 13.7 ± 1.82 µM. Also, the equilibrium dissociation constant (Kd) is 77.5 ± 19.2 µM at T113V/G121S-ecDHFR [10]; 0.34 µM and 0.44 µM on wildtype ecDHFR [11]; 9.73 ± 2.4 µM on G121S-ecDHFR [12]; 116 ± 20.1 µM at M42F/G121S-ecDHFR [13]. At wildtype ecDHFR [1] (versus 0.34 and […]), the “KD^NADPH weaker than previous reports” value was 3∼4 fold. The ΔG1 at T113V/G121S-ecDHFR [2] was 5.98 kcal/mol; at M42F/G121V-ecDHFR [3] it was 8.20 kcal/mol; at T113V/G121V-ecDHFR [8], 5.98 kcal/mol; on M42F/G121S-ecDHFR [9] it was 8.20 kcal/mol. The ΔG2 amounted to 5.12 kcal/mol on T113V/G121S-ecDHFR [2], 5.69 kcal/mol on M42F/G121V-ecDHFR [3], 5.69 kcal/mol on T113V/G121V-ecDHFR [8] and 5.12 kcal/mol at M42F/G121S-ecDHFR [9]. Besides, the “ΔG′1” value on T113V/G121S-ecDHFR [2] was 5.19 kcal/mol; at M42F/G121V-ecDHFR [3], 4.45 kcal/mol; on T113V/G121V-ecDHFR [8] it was 5.99 kcal/mol; at M42F/G121S-ecDHFR [9], 6.13 kcal/mol. Besides, the “ΔG′2” value at T113V/G121S-ecDHFR [2] amounted to 4.33 kcal/mol; at M42F/G121V-ecDHFR [3], 1.95 kcal/mol; on T113V/G121V-ecDHFR [8] it was 5.71 kcal/mol; on M42F/G121S-ecDHFR [9], 3.06 kcal/mol. For the same compound, the ΔΔG result was “–0.79 kcal/mole” at T113V/G121S-ecDHFR [2], “–3.75 kcal/mole” at M42F/G121V-ecDHFR [3], 0.02 kcal/mol on T113V/G121V-ecDHFR [8] and “–2.06 kcal/mole” on M42F/G121S-ecDHFR [9]. For the same compound, the figures for the NADPH binding weakened at G121S-ecDHFR [6] and on G121V-ecDHFR [14] were 10 fold and 40 fold, respectively.

Take `Nc1nc(=O)c2c([nH]1)NCC(CNc1ccc(C(=O)N[C@@H](CCC(=O)O)C(=O)O)cc1)=N2` [H2F, 7,8-dihydrofolate]: in the assay on T113V mutants of ecDHFR, the “decrease in H2F-binding affinity” value was 20–30 fold.

The values above are taken from article PMC8515367 (ACS Omega, 2021).
